Source: US11149018B2, “Substituted N-arylethyl-2-aminoquinoline-4-carboxamides and use thereof” (Bayer Aktiengesellschaft, priority 2017, dated 2021)
Structures can show the parent of a compound that is named as a salt.

These compounds were tested against FP receptor (Homo sapiens (Human), UniProt P43088) (assay: In vitro test of inhibition of human FP receptor activity (PGF2α-induced calcium flux in FP-expressing CHEM1 cells)). Conditions: PGF2α 2 nM, some mean values of multiple determinations.
Assay type: cell-based
How it was run: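 FP antagonism in FP-expressing CHEM1 cells loaded with Fluo-8. Compound preincubated 10 min at 37° C, then receptor stimulated with 2 nM (final) PGF2α in calcium-free Tyrode with 2 mM CaCl2.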

Chain of FP receptor (P43088 whole entry): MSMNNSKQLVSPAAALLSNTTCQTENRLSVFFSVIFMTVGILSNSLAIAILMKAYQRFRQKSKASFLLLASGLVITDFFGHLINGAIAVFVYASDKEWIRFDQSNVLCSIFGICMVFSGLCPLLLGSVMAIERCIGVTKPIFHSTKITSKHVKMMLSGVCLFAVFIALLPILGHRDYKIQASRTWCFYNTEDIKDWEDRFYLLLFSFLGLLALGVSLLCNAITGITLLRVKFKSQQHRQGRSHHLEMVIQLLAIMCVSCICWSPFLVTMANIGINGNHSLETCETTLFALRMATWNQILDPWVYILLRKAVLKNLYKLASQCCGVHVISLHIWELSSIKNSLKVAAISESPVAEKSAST

| SMILES | IC50 [nM] |
| --- | --- |
| Cc1c(N2CCCC(F)(F)C2)nc2ccc(Br)cc2c1C(=O)NCC(CCC(=O)O)c1c(F)cccc1C(F)(F)F (single isomer, unassigned; (-)) [Example 167, (−)-5-({[6-Bromo-2-(3,3-difluoropiperidin-1-yl)-3-methylquinolin-4-yl]carbonyl}amino)-4-[2-fluoro-6-(trifluoromethyl)phenyl]pentanoic acid] | 3.7 |
| Cc1c(N2CCCCC2)nc2ccc(Br)cc2c1C(=O)NCC(CCC(=O)O)c1c(Cl)ccc(Cl)c1Cl (single isomer, unassigned; (-)) [Example 173, (−)-5-({[6-Bromo-3-methyl-2-(piperidin-1-yl)quinolin-4-yl]carbonyl}amino)-4-(2,3,6-trichlorophenyl)pentanoic acid] | 2.2 |
| Cc1c(N2CCCC2)nc2ccc(Br)cc2c1C(=O)NCC(CCC(=O)O)c1c(Cl)ccc(Cl)c1Cl (single isomer, unassigned; (-)) [Example 176, formate] | 7.8 |
| Cc1c(N2CCCC(F)(F)C2)nc2ccc(Br)cc2c1C(=O)NCC(CCC(=O)O)c1c(Cl)ccc(Cl)c1Cl (single isomer, unassigned; (-)) [Example 179, (−)-5-({[6-Bromo-2-(3,3-difluoropiperidin-1-yl)-3-methylquinolin-4-yl]carbonyl}amino)-4-(2,3,6-trichlorophenyl)pentanoic acid] | 2.3 |
| Cc1c(N2CCCCC2)nc2ccc(Br)cc2c1C(=O)NCC(CCC(=O)O)c1c(F)cccc1OC(F)F (single isomer, unassigned; (-)) [Example 183, (−)-5-({[6-Bromo-3-methyl-2-(piperidin-1-yl)quinolin-4-yl]carbonyl}amino)-4-[2-(difluoromethoxy)-6-fluorophenyl]pentanoic acid] | 1.6 |
| Cc1c(N2CCCC(F)C2)nc2ccc(Br)cc2c1C(=O)NCC(CCC(=O)O)c1ccccc1Cl (single isomer, unassigned; (-)) [Example 185, (−)-5-[({6-Bromo-2-[3-fluoropiperidin-1-yl]-3-methylquinolin-4-yl}carbonyl)amino]-4-(2-chlorophenyl)pentanoic acid] | 4 |
| Cc1c(N2CCCC(F)C2)nc2ccc(Br)cc2c1C(=O)NCC(CCC(=O)O)c1ccccc1Cl (single isomer, unassigned; (-)) [Example 186, (−)-5-[({6-Bromo-2-[3-fluoropiperidin-1-yl]-3-methylquinolin-4-yl}carbonyl)amino]-4-(2-chlorophenyl)pentanoic acid] | 8.6 |
| CCC1CCCN(c2nc3ccc(Br)cc3c(C(=O)NCC(CCC(=O)O)c3ccccc3OC(F)(F)F)c2C)C1 (single isomer, unassigned; (-)) [Example 207, (−)-5-[({6-Bromo-2-[3-ethylpiperidin-1-yl]-3-methylquinolin-4-yl}carbonyl)amino]-4-[2-(trifluoromethoxy)phenyl]pentanoic acid] | 22 |
| Cc1ccc(F)cc1C(CCC(=O)O)CNC(=O)c1c(C)c(N2CCCC(F)(F)C2)nc2ccc(Br)cc12 (single isomer, unassigned; (-)) [Example 213, (−)-5-({[6-Bromo-2-(3,3-difluoropiperidin-1-yl)-3-methylquinolin-4-yl]carbonyl}amino)-4-(5-fluoro-2-methylphenyl)pentanoic acid] | 10 |
| Cc1c(N2CCCC2)nc2ccc(Br)cc2c1C(=O)NCC(CCC(=O)O)c1c(F)ccc(F)c1Cl (single isomer, unassigned; (-)) [Example 216, (−)-5-({[6-Bromo-3-methyl-2-(pyrrolidin-1-yl)quinolin-4-yl]carbonyl}amino)-4-(2-chloro-3,6-difluorophenyl)pentanoic acid] | 2.9 |
| Cc1c(N2CCCC(F)(F)C2)nc2ccc(Br)cc2c1C(=O)NCC(CCC(=O)O)c1c(F)ccc(F)c1Cl (single isomer, unassigned; (-)) [Example 218, (−)-5-({[6-Bromo-2-(3,3-difluoropiperidin-1-yl)-3-methylquinolin-4-yl]carbonyl}amino)-4-(2-chloro-3,6-difluorophenyl)pentanoic acid] | 1.2 |
| Cc1ccccc1C(CCC(=O)O)CNC(=O)c1c(C)c(N2CCCC(F)(F)C2)nc2ccc(Br)cc12 (single isomer, unassigned; (-)) [Example 230, (−)-5-({[6-Bromo-2-(3,3-difluoropiperidin-1-yl)-3-methylquinolin-4-yl]carbonyl}amino)-4-(2-methylphenyl)pentanoic acid] | 12 |

Now from value to compound:

| IC50 [nM] | SMILES |
| --- | --- |
| 11 | CCC1CCCN(c2nc3ccc(Br)cc3c(C(=O)NCC(CCC(=O)O)c3ccccc3C(F)(F)F)c2C)C1 (single isomer, unassigned; (-)) [Example 194, (−)-5-[({6-Bromo-2-[3-ethylpiperidin-1-yl]-3-methylquinolin-4-yl}carbonyl)amino]-4-[2-(trifluoromethyl)phenyl]pentanoic acid] |
| 1.6 | Cc1c(N2CCCC(C)C2)nc2ccc(Br)cc2c1C(=O)NCC(CCC(=O)O)c1ccccc1C(F)(F)F (single isomer, unassigned; (-)) [Example 199, (−)-5-[({6-Bromo-3-methyl-2-[3-methylpiperidin-1-yl]quinolin-4-yl}carbonyl)amino]-4-[2-(trifluoromethyl)phenyl]pentanoic acid] |
| 17 | Cc1c(N2CCCC(C)C2)nc2ccc(Br)cc2c1C(=O)NCC(CCC(=O)O)c1ccccc1C(F)(F)F (single isomer, unassigned; (-)) [Example 200, (−)-5-[({6-Bromo-3-methyl-2-[3-methylpiperidin-1-yl]quinolin-4-yl}carbonyl)amino]-4-[2-(trifluoromethyl)phenyl]pentanoic acid] |
| 2.7 | Cc1c(N2CCCC(F)C2)nc2ccc(Br)cc2c1C(=O)NCC(CCC(=O)O)c1ccccc1OC(F)(F)F (single isomer, unassigned; (-)) [Example 201, (−)-5-[({6-Bromo-2-[3-fluoropiperidin-1-yl]-3-methylquinolin-4-yl}carbonyl)amino]-4-[2-(trifluoromethoxy)phenyl]pentanoic acid] |
| 1.7 | Cc1c(N2CCCC(F)C2)nc2ccc(Br)cc2c1C(=O)NCC(CCC(=O)O)c1ccccc1OC(F)(F)F (single isomer, unassigned; (-)) [Example 202, (−)-5-[({6-Bromo-2-[3-fluoropiperidin-1-yl]-3-methylquinolin-4-yl}carbonyl)amino]-4-[2-(trifluoromethoxy)phenyl]pentanoic acid] |
| 7 | Cc1c(N2CCCC(C)C2)nc2ccc(Br)cc2c1C(=O)NCC(CCC(=O)O)c1ccccc1OC(F)(F)F (single isomer, unassigned; (-)) [Example 209, (−)-5-[({6-Bromo-3-methyl-2-[3-methylpiperidin-1-yl]quinolin-4-yl}carbonyl)amino]-4-[2-(trifluoromethoxy)phenyl]pentanoic acid] |
| 0.68 | Cc1c(N2CCCC(C)C2)nc2ccc(Br)cc2c1C(=O)NCC(CCC(=O)O)c1ccccc1OC(F)(F)F (single isomer, unassigned; (-)) [Example 210, (−)-5-[({6-Bromo-3-methyl-2-[3-methylpiperidin-1-yl]quinolin-4-yl}carbonyl)amino]-4-[2-(trifluoromethoxy)phenyl]pentanoic acid] |
